Experimental data from paper PMC6753678, “Fueling Open Innovation for Malaria Transmission-Blocking Drugs: Hundreds of Molecules Targeting Early Parasite Mosquito Stages” (Frontiers in Microbiology, 2019).
Like-named read-outs stand apart in the source and are kept apart here.

Key:
[1] = tested on: 3D7-strain P. falciparum asexual parasites; test: P. falciparum asexual growth inhibition assay (Pf GIA); type: cell-based, Plasmodium falciparum; settings: dose response confirmation; read-out: Pf asexual growth inhibition assays IC50
Procedure, shortened: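 Steps: seed parasites (0.25% parasitemia, 2% hematocrit) onto compound dilutions; incubate 72 h at 37°C, 5% O2/5% CO2; freeze at −70°C and thaw; add LDH reaction mix, read A650 after 10 min. Percent growth inhibition derived from chloroquine and DMSO controls, averaged over three biological replicates.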

HepG2 cells = test: HepG2 cytotoxicity assay; settings: for Pb ODA (this manuscript) HepG2 cytoxicity: HepG2 cytotoxicity listed with the Pb ODA data set (this manuscript); for IC50: read-out: HepG2 cytotoxicity assay IC50, dose response confirmation
Procedure, shortened: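 HepG2 cells, 2,500 per well in MEM with 10% FBS and 1% NEAA, exposed to compounds for 48 h at 37°C, 5% CO2. Viability read by fluorescence; percent inhibition relative to 50 μM doxorubicin and DMSO controls.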

[2] = tested on: P. berghei ookinete development; settings: for % inhibition, Replicate A / % inhibition, Replicate B: primary screen at 1 μM
[3] = read-out: Pb ODA (this manuscript) IC50, P. berghei ookinete development assay, this manuscript
[4] = read-out: Pb Ookinete development assay IC50, dose response confirmation
[5] = HepG2 values of the three screens unified
[6] = read-out: Pb ODA IC50, this manuscript

SMILES | IC50 [1] [nM] | Pb ODA (this manuscript) HepG2 cytoxicity (HepG2 cells) [µM] | IC50 (HepG2 cells) [nM] | Is compound selective in assay? Pb ODA active? [2] | % inhibition, Replicate A [2] [%] | % inhibition, Replicate B [2] [%] | IC50 [2, 3] [nM] | IC50 [2, 4] [nM] | HepG2 cytoxicity (Pb ODA, this manuscript) (HepG2 cells) [µM] | Unified cytotox (HepG2 cells; [5]) [µM] | Is compound selective in assay? Pb ODA active? ([2]; 1: YES, 0: NO) | IC50 [2, 6] [nM] | Unified cytotox (HepG2 cells; unified HepG2 value across the three screens) [µM]
Br.CC1(C)NC(N)=NC(=N)N1OCCCOc1cccc(Cl)c1 [TCMDC-131762] | < 0.2 | 0.001 | 1 | 0 (key: 1: YES; 0: NO) | 47.79 | 53.67 | 2100 | 2100 | – | – | – | – | –
Cc1[nH]c(C)c(-c2ccc(OCc3ccccc3C(F)(F)F)nc2)c(=O)c1Br [TCMDC-135796] | 36 | – | 3020 | – | 84.05 | 98.42 | – | 42 | 3.02 | 3.02 | 1 (1: YES) | 40 | –
CN1CCN(c2ccc(Nc3ncc(Cl)c(Nc4cccnc4C(N)=O)n3)cc2)CC1.Cl [TCMDC-134164] | 84 | 4.62 | 4620 | 1 (key: 1: YES; 0: NO) | 96.98 | 90.60 | 230 | 226 | – | – | – | – | –
Br.CCCc1cc(C)ccc1OCCCON1C(N)=NC(N)=NC1(C)C [TCMDC-131320] | < 0.2 | – | 1.7 | – | 73.15 | 59.20 | – | 5110 | 0.0017 | 0.0017 | 0 (0: NO) | 5110 | –
Cc1nc(C)c(-c2ccc(Oc3ccc(OC(F)(F)F)cc3)cc2)c(OC(=O)c2ccc(CN(C)C)cc2)c1Cl [TCMDC-137382] | 127 | 24.55 | 24600 | 1 (key: 1: YES; 0: NO) | 93.07 | 108.44 | 460 | 462 | – | – | – | – | –
COc1ccc2ncc(C#N)c(CCN3C4CCC3CC(NCc3ccc5c(n3)NC(=O)CS5)C4)c2c1.Cl (stereo not shown) [TCMDC-135180] | 630 | – | 6460 | – | 66.14 | 72.52 | – | 3070 | 6.46 | 6.46 | 0 (0: NO) | 3070 | –
Cc1ccc2nc(/N=C(\N)NC(=O)NC3CCCCC3)nc(C)c2c1 [TCMDC-124557] | 4680 | 57.54 | 57500 | 1 (key: 1: YES; 0: NO) | 85.28 | 75.31 | 1750 | 1750 | – | – | – | – | –
CC(C)Cn1ccc2c3c(N)nc(N)nc3ccc21 [TCMDC-137997] | 19 | – | 250 | – | 52.84 | 64.75 | – | 1400 | 0.25 | 0.25 | 0 (0: NO) | 1400 | –
Cc1ccc(C2(CN3CCC(NC(=O)c4[nH]ncc4Cl)CC3)CCCCC2)cc1 [TCMDC-124838] | 0.45 | 27.23 | 27200 | 1 (key: 1: YES; 0: NO) | 44.93 | 53.77 | 1430 | 1430 | – | – | – | – | –
C=Cc1ccc(-c2c(C)[nH]c(C)c(Br)c2=O)cc1 [TCMDC-135433] | 433 | 57.54 | 57500 | 1 (key: 1: YES; 0: NO) | 31.67 | 64.44 | 1240 | 1240 | – | – | – | – | –
C#C[C@H]1O[C@@H](n2cnc3c(Nc4cc(Br)cc(C(F)(F)F)c4)ncnc32)[C@H](O)[C@@H]1O [TCMDC-135185] | 3380 | – | 57500 | – | 92.13 | 83.74 | – | 533 | – | – | 1 (1: YES) | 530 | 57.54
Cc1[nH]c(C)c(-c2ccc(C#Cc3ccc(F)cc3F)cc2)c(=O)c1Br [TCMDC-134692] | 16 | 100.00 | 100000 | 1 (key: 1: YES; 0: NO) | 89.67 | 88.19 | 400 | 399 | – | – | – | – | –
